Tests used:
CCRF-CEM = assay: NCI-60 growth inhibition: CCRF-CEM (Leukemia); format: cell-based, human
HL-60(TB) = assay: NCI-60 growth inhibition: HL-60(TB) (Leukemia); format: cell-based, human; conditions: HL-60(TB) (Leukemia); read-out: GI50
K-562 = assay: NCI-60 growth inhibition: K-562 (Leukemia); format: cell-based, human
MOLT-4 = assay: NCI-60 growth inhibition: MOLT-4 (Leukemia); format: cell-based, human
RPMI-8226 = assay: NCI-60 growth inhibition: RPMI-8226 (Leukemia); format: cell-based, human
EKVX = assay: NCI-60 growth inhibition: EKVX (Non-Small-Cell Lung Cancer); format: cell-based, human
HOP-92 = assay: NCI-60 growth inhibition: HOP-92 (Non-Small-Cell Lung Cancer); format: cell-based, human
NCI-H23 = assay: NCI-60 growth inhibition: NCI-H23 (Non-Small-Cell Lung Cancer); format: cell-based, human
NCI-H460 = assay: NCI-60 growth inhibition: NCI-H460 (Non-Small-Cell Lung Cancer); format: cell-based, human
COLO 205 = assay: NCI-60 growth inhibition: COLO 205 (Colon Cancer); format: cell-based, human
HCT-15 = assay: NCI-60 growth inhibition: HCT-15 (Colon Cancer); format: cell-based, human
HT29 = assay: NCI-60 growth inhibition: HT29 (Colon Cancer); format: cell-based, human
SW-620 = assay: NCI-60 growth inhibition: SW-620 (Colon Cancer); format: cell-based, human
SF-268 = assay: NCI-60 growth inhibition: SF-268 (CNS Cancer); format: cell-based, human
SF-539 = assay: NCI-60 growth inhibition: SF-539 (CNS Cancer); format: cell-based, human
SNB-19 = assay: NCI-60 growth inhibition: SNB-19 (CNS Cancer); format: cell-based, human
SNB-75 = assay: NCI-60 growth inhibition: SNB-75 (CNS Cancer); format: cell-based, human
U251 = assay: NCI-60 growth inhibition: U251 (CNS Cancer); format: cell-based, human
LOX IMVI = assay: NCI-60 growth inhibition: LOX IMVI (Melanoma); format: cell-based, human
MALME-3M = assay: NCI-60 growth inhibition: MALME-3M (Melanoma); format: cell-based, human
M14 = assay: NCI-60 growth inhibition: M14 (Melanoma); format: cell-based, human
MDA-MB-435 = assay: NCI-60 growth inhibition: MDA-MB-435 (Melanoma); format: cell-based, human
SK-MEL-2 = assay: NCI-60 growth inhibition: SK-MEL-2 (Melanoma); format: cell-based, human
SK-MEL-28 = assay: NCI-60 growth inhibition: SK-MEL-28 (Melanoma); format: cell-based, human
SK-MEL-5 = assay: NCI-60 growth inhibition: SK-MEL-5 (Melanoma); format: cell-based, human
UACC-257 = assay: NCI-60 growth inhibition: UACC-257 (Melanoma); format: cell-based, human
UACC-62 = assay: NCI-60 growth inhibition: UACC-62 (Melanoma); format: cell-based, human
IGROV1 = assay: NCI-60 growth inhibition: IGROV1 (Ovarian Cancer); format: cell-based, human
OVCAR-3 = assay: NCI-60 growth inhibition: OVCAR-3 (Ovarian Cancer); format: cell-based, human
OVCAR-4 = assay: NCI-60 growth inhibition: OVCAR-4 (Ovarian Cancer); format: cell-based, human
OVCAR-5 = assay: NCI-60 growth inhibition: OVCAR-5 (Ovarian Cancer); format: cell-based, human
OVCAR-8 = assay: NCI-60 growth inhibition: OVCAR-8 (Ovarian Cancer); format: cell-based, human
786-0 = assay: NCI-60 growth inhibition: 786-0 (Renal Cancer); format: cell-based, human
A498 = assay: NCI-60 growth inhibition: A498 (Renal Cancer); format: cell-based, human
ACHN = assay: NCI-60 growth inhibition: ACHN (Renal Cancer); format: cell-based, human
CAKI-1 = assay: NCI-60 growth inhibition: CAKI-1 (Renal Cancer); format: cell-based, human
RXF 393 = assay: NCI-60 growth inhibition: RXF 393 (Renal Cancer); format: cell-based, human
SN12C = assay: NCI-60 growth inhibition: SN12C (Renal Cancer); format: cell-based, human
TK-10 = assay: NCI-60 growth inhibition: TK-10 (Renal Cancer); format: cell-based, human
UO-31 = assay: NCI-60 growth inhibition: UO-31 (Renal Cancer); format: cell-based, human
PC-3 = assay: NCI-60 growth inhibition: PC-3 (Prostate Cancer); format: cell-based, human
DU-145 = assay: NCI-60 growth inhibition: DU-145 (Prostate Cancer); format: cell-based, human
MCF7 = assay: NCI-60 growth inhibition: MCF7 (Breast Cancer); format: cell-based, human
MDA-MB-231/ATCC = assay: NCI-60 growth inhibition: MDA-MB-231/ATCC (Breast Cancer); format: cell-based, human
HS 578T = assay: NCI-60 growth inhibition: HS 578T (Breast Cancer); format: cell-based, human
BT-549 = assay: NCI-60 growth inhibition: BT-549 (Breast Cancer); format: cell-based, human
T-47D = assay: NCI-60 growth inhibition: T-47D (Breast Cancer); format: cell-based, human
MDA-MB-468 = assay: NCI-60 growth inhibition: MDA-MB-468 (Breast Cancer); format: cell-based, human; conditions: MDA-MB-468 (Breast Cancer); read-out: GI50
[1] = tested on: MV4-11 cell line (myelomonocytic leukemia); conditions: MV4-11 cells, 24 h, MMB-TDZD analogs (Table 2)
HCT-116 = assay: NCI-60 growth inhibition: HCT-116 (Colon Cancer)
[2] = tested on: human leukemia cell lines; assay: NCI-60 growth inhibition, leukemia cell lines; conditions: NCI panel
NCI-H522 = assay: NCI-60 growth inhibition: NCI-H522 (Non-Small-Cell Lung Cancer)

SMILES: C=C1C(=O)O[C@H]2[C@H]1CC/C(COC(=O)NCc1ccc(Cn3c(=O)sn(CCCC#N)c3=O)cc1)=C\CC[C@@]1(C)O[C@@H]21 [BSK-226]
- GI50 (CCRF-CEM): 570 nM
- GI50 (HL-60(TB)): 960 nM
- GI50 (K-562): 720 nM
- GI50 (MOLT-4): 1500 nM
- GI50 (RPMI-8226): 760 nM
- GI50 (EKVX): 2820 nM
- GI50 (HOP-92): 1100 nM
- GI50 (NCI-H23): 2330 nM
- GI50 (NCI-H460): 11300 nM
- GI50 (COLO 205): 2040 nM
- GI50 (HCT-15): 1940 nM
- GI50 (HT29): 2460 nM
- GI50 (SW-620): 1230 nM
- GI50 (SF-268): 2630 nM
- GI50 (SF-539): 1730 nM
- GI50 (SNB-19): 4840 nM
- GI50 (SNB-75): 2030 nM
- GI50 (U251): 5050 nM
- GI50 (LOX IMVI): 1580 nM
- GI50 (MALME-3M): 1340 nM
- GI50 (M14): 1930 nM
- GI50 (MDA-MB-435): 1800 nM
- GI50 (SK-MEL-2): 4830 nM
- GI50 (SK-MEL-28): 1690 nM
- GI50 (SK-MEL-5): 3720 nM
- GI50 (UACC-257): 1610 nM
- GI50 (UACC-62): 1440 nM
- GI50 (IGROV1): 1780 nM
- GI50 (OVCAR-3): 770 nM
- GI50 (OVCAR-4): 1670 nM
- GI50 (OVCAR-5): 2640 nM
- GI50 (OVCAR-8): 2320 nM
- GI50 (786-0): 1480 nM
- GI50 (A498): 2830 nM
- GI50 (ACHN): 1660 nM
- GI50 (CAKI-1): 2050 nM
- GI50 (RXF 393): 1350 nM
- GI50 (SN12C): 1360 nM
- GI50 (TK-10): 1750 nM
- GI50 (UO-31): 1400 nM
- GI50 (PC-3): 2130 nM
- GI50 (DU-145): 1640 nM
- GI50 (MCF7): 1710 nM
- GI50 (MDA-MB-231/ATCC): 1720 nM
- GI50 (HS 578T): 5640 nM
- GI50 (BT-549): 1480 nM
- GI50 (T-47D): 1970 nM
- GI50 (MDA-MB-468): 1530 nM
- LD50, 7AAD (μM) 24 h ([1]; 7AAD): 0.75 µM
- LD50, Alamar blue (μM) 24 h ([1]; Alamar blue): 0.45 µM
- LD50, YOPRO (μM) 24 h ([1]; YOPRO): 0.37 µM
- GI50 (HCT-116; HCT-116 (Colon Cancer)): 560 nM
- GI50 (HCT-116; HCT-116 (colon cancer)): 560 nM
- potency against leukemia cell lines (GI50 <1.0) [2]: comparably potent against 4 out of 5 leukemia cell lines
- GI50 (NCI-H522; NCI-H522 (Non-Small-Cell Lung Cancer)): 530 nM
- GI50 (NCI-H522; NCI-H522 (non-small-cell lung cancer)): 530 nM

From patent US20230125667A1, “NOVEL TDZD ANALOGS AS AGENTS THAT DELAY, PREVENT, OR REVERSE AGE-ASSOCIATED DISEASES AND AS ANTI-CANCER AND ANTILEUKEMIC AGENTS” (United States Government as represented by the Department …, priority 2020, published 2023)
